This passage reports inhibition results from ChEMBL document CHEMBL4002601, “A triple exon-skipping luciferase reporter assay identifies a new CLK inhibitor pharmacophore” (Bioorg Med Chem Lett, 2017).

The structures appear in SMILES notation.

Assay [1] concerns the target ALK tyrosine kinase receptor (Homo sapiens) (UniProt Q9UM73). The assay is described as follows: Inhibition of human ALK using casein as substrate in presence of [gamma-33P]ATP at 1 uM after 40 mins by scintillation counter method.
Assay [2] addresses T1, Aurora kinase A (Homo sapiens) (UniProt O14965).
T1 sequence (whole entry): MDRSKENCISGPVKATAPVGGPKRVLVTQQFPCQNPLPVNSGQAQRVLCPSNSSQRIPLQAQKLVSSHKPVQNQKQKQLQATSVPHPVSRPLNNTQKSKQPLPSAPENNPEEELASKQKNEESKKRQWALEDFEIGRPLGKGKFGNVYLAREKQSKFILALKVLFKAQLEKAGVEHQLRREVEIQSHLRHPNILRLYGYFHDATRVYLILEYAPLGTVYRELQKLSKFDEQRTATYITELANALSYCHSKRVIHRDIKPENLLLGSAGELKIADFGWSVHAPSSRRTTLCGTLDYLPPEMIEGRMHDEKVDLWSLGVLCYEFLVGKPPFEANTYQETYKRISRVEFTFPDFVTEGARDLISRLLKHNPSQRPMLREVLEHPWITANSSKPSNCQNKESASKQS
The assay is described as follows: Inhibition of human Aurora-A using Kemptide as substrate in presence of [gamma-33P]ATP at 1 uM after 40 mins by scintillation counter method.

Assay [3] addresses Epidermal growth factor receptor (Homo sapiens) (UniProt P00533). The assay is described as follows: Inhibition of human EGFR using poly(Glu, Tyr) 4:1 as substrate in presence of [gamma-33P]ATP at 1 uM after 40 mins by scintillation counter method.
The target of assay [4] is Receptor tyrosine-protein kinase erbB-2 (Homo sapiens) (UniProt P04626). As to the kind of experiment: Inhibition of human ErbB2 using poly(Glu, Tyr) as substrate in presence of [gamma-33P]ATP at 1 uM after 40 mins by scintillation counter method.
Assay [5] concerns the target T2, Inhibitor of nuclear factor kappa-B kinase subunit beta (Homo sapiens) (UniProt O14920).
T2 sequence (whole entry): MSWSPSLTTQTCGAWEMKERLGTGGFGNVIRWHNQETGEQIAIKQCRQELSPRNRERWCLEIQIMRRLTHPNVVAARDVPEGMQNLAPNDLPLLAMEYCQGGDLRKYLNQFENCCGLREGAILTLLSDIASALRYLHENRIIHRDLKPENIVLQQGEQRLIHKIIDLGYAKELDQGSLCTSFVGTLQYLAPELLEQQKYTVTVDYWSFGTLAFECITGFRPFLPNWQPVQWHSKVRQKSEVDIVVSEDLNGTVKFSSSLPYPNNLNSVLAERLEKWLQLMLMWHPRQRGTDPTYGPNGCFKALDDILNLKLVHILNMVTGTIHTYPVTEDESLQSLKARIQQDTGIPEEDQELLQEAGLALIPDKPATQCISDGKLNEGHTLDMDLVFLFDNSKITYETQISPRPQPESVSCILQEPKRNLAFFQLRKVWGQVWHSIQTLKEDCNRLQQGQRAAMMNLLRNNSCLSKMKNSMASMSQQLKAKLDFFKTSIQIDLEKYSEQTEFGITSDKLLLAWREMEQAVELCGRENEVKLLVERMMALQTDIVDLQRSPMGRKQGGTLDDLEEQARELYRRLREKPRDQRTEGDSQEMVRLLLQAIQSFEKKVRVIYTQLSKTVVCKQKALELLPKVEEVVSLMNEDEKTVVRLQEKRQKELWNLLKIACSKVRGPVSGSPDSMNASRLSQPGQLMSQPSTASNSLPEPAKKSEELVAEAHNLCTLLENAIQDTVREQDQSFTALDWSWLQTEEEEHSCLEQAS
The assay is described as follows: Inhibition of human IKKbeta using KKKKERLLDDRHDSGLDSMKDEE as substrate in presence of [gamma-33P]ATP at 1 uM after 40 mins by scintillation counter method.

Assay [6] addresses Vascular endothelial growth factor receptor 2 (Homo sapiens) (UniProt P35968). The assay is described as follows: Inhibition of human KDR using myelin basic protein as substrate in presence of [gamma-33P]ATP at 1 uM after 40 mins by scintillation counter method.
For assay [7], the target named is T3, Mitogen-activated protein kinase kinase kinase 2 (Homo sapiens) (UniProt Q9Y2U5).
T3 sequence (whole entry): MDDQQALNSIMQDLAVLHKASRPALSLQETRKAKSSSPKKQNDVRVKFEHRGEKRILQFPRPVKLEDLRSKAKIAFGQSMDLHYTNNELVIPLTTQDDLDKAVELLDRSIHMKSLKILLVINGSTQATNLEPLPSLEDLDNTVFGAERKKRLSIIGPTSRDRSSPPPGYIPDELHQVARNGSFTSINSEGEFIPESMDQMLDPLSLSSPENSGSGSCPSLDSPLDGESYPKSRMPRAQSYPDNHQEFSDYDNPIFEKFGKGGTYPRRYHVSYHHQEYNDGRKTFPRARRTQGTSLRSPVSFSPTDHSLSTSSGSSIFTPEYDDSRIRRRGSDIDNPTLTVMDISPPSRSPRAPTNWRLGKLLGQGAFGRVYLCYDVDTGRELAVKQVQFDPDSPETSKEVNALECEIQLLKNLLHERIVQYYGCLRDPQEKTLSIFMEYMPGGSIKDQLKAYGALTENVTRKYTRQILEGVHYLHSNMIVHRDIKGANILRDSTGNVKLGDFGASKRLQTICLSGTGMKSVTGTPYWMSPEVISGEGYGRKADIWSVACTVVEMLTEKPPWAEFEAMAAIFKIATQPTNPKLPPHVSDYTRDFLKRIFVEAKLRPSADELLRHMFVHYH
As to the kind of experiment: Inhibition of human MEKK2 using myelin basic protein as substrate in presence of [gamma-33P]ATP at 1 uM after 40 mins by scintillation counter method.

Assay [8] concerns the target SRSF protein kinase 1 (Homo sapiens) (UniProt Q96SB4). As to the kind of experiment: Inhibition of human SRPK1 using RSRSRSRSRSRSRSR as substrate in presence of [gamma-33P]ATP at 1 uM after 40 mins by scintillation counter method.

Sequence of SRSF protein kinase 1 (Homo sapiens) (Q96SB4 whole entry): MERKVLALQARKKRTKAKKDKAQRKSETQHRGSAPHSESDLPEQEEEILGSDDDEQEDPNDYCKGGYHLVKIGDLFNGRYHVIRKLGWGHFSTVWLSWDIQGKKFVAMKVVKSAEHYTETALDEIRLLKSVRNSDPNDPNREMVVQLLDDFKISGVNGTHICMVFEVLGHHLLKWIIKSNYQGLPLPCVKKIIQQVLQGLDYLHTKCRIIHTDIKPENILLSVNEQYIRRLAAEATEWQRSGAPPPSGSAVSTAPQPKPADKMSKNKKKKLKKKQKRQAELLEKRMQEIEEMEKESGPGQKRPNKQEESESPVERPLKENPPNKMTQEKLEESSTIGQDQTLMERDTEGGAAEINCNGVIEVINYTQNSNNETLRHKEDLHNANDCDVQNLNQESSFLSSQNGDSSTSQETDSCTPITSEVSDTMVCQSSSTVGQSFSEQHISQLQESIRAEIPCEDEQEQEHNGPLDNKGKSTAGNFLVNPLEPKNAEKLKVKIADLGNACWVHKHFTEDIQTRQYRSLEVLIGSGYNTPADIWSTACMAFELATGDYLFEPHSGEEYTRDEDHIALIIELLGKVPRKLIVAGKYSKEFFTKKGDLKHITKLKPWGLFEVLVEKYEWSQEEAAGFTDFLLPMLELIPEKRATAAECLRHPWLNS
Sequence of Epidermal growth factor receptor (Homo sapiens) (P00533 whole entry): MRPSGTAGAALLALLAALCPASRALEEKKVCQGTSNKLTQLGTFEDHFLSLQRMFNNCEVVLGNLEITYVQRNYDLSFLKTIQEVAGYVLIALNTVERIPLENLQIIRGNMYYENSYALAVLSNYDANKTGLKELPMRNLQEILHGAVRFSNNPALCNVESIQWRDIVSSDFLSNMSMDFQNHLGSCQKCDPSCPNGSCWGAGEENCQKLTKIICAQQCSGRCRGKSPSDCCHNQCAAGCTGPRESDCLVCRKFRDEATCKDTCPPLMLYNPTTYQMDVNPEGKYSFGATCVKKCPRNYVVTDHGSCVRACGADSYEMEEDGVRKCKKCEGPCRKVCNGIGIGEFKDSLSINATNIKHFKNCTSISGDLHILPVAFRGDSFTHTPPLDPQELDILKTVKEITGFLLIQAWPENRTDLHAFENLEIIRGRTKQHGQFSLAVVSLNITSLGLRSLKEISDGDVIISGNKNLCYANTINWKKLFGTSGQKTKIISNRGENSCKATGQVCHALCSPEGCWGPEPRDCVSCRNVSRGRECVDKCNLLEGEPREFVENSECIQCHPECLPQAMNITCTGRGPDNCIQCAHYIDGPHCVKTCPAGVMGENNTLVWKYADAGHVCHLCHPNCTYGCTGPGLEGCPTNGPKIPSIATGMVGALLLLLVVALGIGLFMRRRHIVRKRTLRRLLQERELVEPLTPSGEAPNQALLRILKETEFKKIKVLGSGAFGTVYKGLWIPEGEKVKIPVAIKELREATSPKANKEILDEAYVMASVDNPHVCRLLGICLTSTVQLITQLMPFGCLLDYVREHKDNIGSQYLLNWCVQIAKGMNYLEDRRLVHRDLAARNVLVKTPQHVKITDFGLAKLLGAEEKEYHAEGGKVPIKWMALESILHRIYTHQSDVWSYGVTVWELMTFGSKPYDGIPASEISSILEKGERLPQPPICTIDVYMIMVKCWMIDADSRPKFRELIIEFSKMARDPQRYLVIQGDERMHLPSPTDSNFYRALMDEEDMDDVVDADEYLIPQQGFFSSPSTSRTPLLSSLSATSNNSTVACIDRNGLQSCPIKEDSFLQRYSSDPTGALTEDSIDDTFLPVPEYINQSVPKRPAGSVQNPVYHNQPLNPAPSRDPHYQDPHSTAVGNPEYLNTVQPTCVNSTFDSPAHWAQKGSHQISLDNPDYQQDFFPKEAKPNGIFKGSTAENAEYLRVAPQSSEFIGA
Sequence of Vascular endothelial growth factor receptor 2 (Homo sapiens) (P35968 whole entry): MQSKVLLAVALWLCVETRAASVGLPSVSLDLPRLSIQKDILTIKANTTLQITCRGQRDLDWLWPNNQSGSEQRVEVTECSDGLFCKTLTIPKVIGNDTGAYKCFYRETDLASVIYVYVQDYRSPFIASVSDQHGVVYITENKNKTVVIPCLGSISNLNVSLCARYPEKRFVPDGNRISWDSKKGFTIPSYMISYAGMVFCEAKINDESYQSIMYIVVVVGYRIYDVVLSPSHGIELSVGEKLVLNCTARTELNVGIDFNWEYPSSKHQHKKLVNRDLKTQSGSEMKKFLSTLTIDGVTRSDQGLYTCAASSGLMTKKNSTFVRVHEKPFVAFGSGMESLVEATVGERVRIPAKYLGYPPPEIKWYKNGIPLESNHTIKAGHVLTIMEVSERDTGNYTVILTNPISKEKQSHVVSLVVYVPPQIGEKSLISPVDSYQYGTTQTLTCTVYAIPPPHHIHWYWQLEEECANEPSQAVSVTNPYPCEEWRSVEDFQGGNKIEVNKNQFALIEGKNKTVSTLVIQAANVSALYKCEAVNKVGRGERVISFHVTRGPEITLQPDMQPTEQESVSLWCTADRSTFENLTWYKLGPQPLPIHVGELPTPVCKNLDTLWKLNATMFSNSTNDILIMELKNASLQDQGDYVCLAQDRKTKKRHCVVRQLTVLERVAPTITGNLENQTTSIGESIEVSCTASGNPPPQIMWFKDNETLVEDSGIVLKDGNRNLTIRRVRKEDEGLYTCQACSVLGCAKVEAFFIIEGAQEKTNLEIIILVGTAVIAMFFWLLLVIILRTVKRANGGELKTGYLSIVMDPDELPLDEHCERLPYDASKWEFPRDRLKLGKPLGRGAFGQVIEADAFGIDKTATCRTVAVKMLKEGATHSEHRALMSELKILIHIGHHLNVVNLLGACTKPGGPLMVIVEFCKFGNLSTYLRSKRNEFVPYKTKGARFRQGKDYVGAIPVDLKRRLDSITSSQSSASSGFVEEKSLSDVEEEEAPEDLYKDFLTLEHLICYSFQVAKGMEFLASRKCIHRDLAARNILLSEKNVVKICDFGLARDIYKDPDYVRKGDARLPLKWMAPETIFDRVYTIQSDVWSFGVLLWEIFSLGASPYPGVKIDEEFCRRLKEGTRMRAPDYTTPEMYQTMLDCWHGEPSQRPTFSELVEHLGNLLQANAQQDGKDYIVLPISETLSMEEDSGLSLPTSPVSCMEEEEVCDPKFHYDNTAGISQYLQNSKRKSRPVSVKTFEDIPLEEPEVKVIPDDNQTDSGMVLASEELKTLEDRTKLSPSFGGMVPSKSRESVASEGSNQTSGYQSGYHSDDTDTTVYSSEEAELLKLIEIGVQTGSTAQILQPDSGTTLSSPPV
Sequence of ALK tyrosine kinase receptor (Homo sapiens) (Q9UM73 19-1620 limits assumed): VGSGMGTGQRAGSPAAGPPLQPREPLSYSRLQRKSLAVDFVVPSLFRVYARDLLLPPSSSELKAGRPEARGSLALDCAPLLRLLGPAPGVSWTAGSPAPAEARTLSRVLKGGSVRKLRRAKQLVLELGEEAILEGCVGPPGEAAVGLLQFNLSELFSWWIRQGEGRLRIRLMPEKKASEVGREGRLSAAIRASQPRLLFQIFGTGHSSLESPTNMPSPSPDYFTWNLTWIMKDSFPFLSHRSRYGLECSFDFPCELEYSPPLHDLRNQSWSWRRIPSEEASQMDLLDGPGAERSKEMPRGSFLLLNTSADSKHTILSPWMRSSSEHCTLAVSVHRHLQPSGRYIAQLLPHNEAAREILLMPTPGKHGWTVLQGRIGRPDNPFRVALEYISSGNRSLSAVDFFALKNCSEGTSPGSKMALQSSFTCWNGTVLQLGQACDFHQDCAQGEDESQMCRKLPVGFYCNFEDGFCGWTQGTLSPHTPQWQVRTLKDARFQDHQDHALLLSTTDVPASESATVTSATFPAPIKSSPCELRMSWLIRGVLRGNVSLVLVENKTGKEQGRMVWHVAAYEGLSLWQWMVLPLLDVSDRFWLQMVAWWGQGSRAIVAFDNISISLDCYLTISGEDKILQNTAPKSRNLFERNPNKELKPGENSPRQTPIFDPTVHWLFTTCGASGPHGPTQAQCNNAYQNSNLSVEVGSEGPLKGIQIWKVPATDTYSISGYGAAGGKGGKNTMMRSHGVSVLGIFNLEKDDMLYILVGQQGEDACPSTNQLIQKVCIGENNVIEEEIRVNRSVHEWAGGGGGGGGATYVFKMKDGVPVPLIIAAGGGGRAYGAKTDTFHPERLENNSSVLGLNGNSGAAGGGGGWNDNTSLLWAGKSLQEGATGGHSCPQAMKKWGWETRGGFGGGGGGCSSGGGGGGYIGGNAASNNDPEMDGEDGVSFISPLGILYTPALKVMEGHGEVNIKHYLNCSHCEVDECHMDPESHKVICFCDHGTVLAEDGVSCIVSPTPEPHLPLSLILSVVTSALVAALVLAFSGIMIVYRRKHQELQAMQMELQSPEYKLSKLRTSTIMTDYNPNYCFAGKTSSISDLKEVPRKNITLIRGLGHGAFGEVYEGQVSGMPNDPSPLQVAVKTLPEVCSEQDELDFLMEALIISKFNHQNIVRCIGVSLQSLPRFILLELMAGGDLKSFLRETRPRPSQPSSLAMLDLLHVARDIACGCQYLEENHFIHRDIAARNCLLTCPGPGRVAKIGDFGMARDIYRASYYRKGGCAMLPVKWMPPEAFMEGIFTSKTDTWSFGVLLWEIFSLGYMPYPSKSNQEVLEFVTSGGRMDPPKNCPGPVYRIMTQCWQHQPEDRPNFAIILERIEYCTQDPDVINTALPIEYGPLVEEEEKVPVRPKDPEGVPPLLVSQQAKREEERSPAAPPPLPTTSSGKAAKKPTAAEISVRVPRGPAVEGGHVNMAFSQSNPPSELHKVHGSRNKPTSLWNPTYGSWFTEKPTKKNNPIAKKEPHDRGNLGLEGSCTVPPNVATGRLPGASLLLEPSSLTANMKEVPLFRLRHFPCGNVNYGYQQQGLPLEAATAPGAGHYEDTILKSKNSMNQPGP

With `CC(C)n1cnc2c(Nc3cccc(Cl)c3)nc(N[C@H]3CCCC[C@@H]3N)nc21`, the inhibition (commonly the drop in the measured response relative to a control, in per cent) was 7% in assay [1]; 4% in assay [2]; -6% in assay [3]; 2% in assay [4]; -2% in assay [5]; 16% in assay [6]. Also, the inhibition was 47% in assay [7] and -1% in assay [8].

Take `CC(C)n1cnc2c(Nc3cccc(Cl)c3)nc(N[C@@H]3CCCC[C@@H]3N)nc21`: the inhibition is -2% in assay [1]; -5% in assay [2]; 3% in assay [3]; 0% in assay [4]; -5% in assay [5]; -6% in assay [6]. Besides, the inhibition in assay [7] came out at 18%; in assay [8], 48%.

As to `CC(C)n1cnc2c(Nc3cc(N)cc(Cl)c3)nc(N[C@@H]3CCCC[C@@H]3N)nc21` (racemic), the inhibition was 10% in assay [1]; 13% in assay [2]; -1% in assay [3]; 3% in assay [4]; -9% in assay [5]; 4% in assay [6]. Moreover, the inhibition was 48% in assay [7] and 21% in assay [8].
